# From patent US10835533B2, “1 -((3S,4R)-4-(3-fluorophenyl)-1-(2-methoxyethyl)pyrrolidin-3-yl)-3-(4-methyl-3-(2-methylpyrimidin-5-yl)-1-phenyl-1H-pyrazol-5-yl)urea as a TrkA kinase inhibitor” (Array BioPharma Inc., priority 2014, dated 2020)
# How the values were obtained:
# [1] = target: T1, CHO-K1 cells transfected with human wild type TrkA (Homo sapiens, UniProt P04629); test: TrkA Cell Assay, phospho-TrkA ELISA (Example B); assay type: cell-based; conditions: assay of Example B, 30 ng/mL human NGF, read-out: averaged IC50 value, phospho-TrkA
# T1 construct: expressed in transfected cells; host or cells: CHO-K1
# T1 sequence (P04629 33-796): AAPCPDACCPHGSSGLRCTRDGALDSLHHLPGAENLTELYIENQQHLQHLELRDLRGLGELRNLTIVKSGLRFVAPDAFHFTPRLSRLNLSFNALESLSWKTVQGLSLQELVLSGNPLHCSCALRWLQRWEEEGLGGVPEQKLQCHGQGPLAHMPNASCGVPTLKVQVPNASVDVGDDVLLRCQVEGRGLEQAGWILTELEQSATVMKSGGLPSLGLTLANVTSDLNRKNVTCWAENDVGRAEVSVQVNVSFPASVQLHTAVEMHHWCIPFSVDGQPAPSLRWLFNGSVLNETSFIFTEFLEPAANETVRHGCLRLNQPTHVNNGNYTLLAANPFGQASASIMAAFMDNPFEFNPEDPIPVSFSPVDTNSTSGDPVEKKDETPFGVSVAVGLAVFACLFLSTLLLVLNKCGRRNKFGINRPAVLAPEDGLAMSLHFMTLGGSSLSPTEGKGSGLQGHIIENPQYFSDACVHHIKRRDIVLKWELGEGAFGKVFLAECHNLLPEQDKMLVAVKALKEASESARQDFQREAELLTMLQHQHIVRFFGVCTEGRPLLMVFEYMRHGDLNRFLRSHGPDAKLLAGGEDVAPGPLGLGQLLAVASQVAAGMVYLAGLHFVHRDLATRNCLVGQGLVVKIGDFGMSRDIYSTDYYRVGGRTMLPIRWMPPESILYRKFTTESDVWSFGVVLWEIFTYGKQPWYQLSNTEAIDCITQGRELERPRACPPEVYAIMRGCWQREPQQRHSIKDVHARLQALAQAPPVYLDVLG
# Description: CHO-K1 cells transfected with human wild type TrkA were plated in a 96-well flat-bottom plate at 3×10^5 cells/well in complete DMEM medium containing 10% FBS and allowed to attach for 24 hours at 37° C., 5% CO2. Medium was then replaced with complete serum free assay medium and the cells were serum starved for 1 hour at 37° C., 5% CO2. Cells were treated with Compound 1, 2 or 3 using 1:3 serial dilutions with final concentrations ranging from 1 μM to […]. The compound was incubated on cells for 1 hour at 37° C., 5% CO2. Cells were then stimulated with a final concentration of 30 ng/mL human NGF for 7 minutes at 37° C., 5% CO2. Medium was removed and cells were lysed with lysis buffer containing phosphatase and protease inhibitors. Phospho-TrkA was measured by ELISA (R&D Catalog No. DYC2578). The ELISA captured total TrkA and detected total phosphor-tyrosine. Optical density was measured for each well using a Versamax reader at a wave length of 450 nm. The IC50 values were determined by fitting a four parameter model to the percent of control data.
# [2] = IV clearance, 1 mg/kg IV, dog; assay type: in vivo; conditions: for clearance: male, Beagle, plasma, 1 mg/kg IV; for in vivo/in vitro correction factor: microsomal CLh divided by IV CL
# Description: (§1) In Table 1, the predicted human IV clearance values were calculated from compound concentration-versus-time data in plasma collected from pre-clinical species (mouse, rat, dog and monkey) following 1 mg/kg intravenous (IV) doses. Concentrations of compound in plasma were measured by LC-MS (liquid chromatography-mass spectrometry). AUCinf values (Area under the plasma concentration-time curve for a dosing interval from time 0 extrapolated to infinity) for individual Cp/t curves (concentration of the drug in plasma at any time t) were determined using linear-trapezoidal integration and first order extrapolation from terminal points of the Cp/t curves, and clearance (CL) was calculated using Dose/AUCinf.
# An IV dose formulation for delivery of a 1 mg/kg in 1 mL/kg dose volume was prepared as follow. The vehicle for the formulation was 20% Trappsol® (hydroxypropyl Beta cyclodextrin; CDT, Inc.) (aq) in water. A final volume of the vehicle was added to each of Compound 1, Compound 2, and Compound 3 (as dry compounds) and the mixture was stirred until a homogeneous solution was obtained. The pH of the final solution was 7. The solution was filtered using a 0.2 μM filter before delivering to the animal.
# Male Beagle dogs received a single intravenous dose following an overnight fast. Blood/plasma was collected (1.5 mL/timepoint) in K2EDTA blood collection tubes at the following time points post-dose: 0, 1, 5, 15, and 30 minutes, and 1, 2, 4, 8, 12, 24, and 48 hours, and mixed thoroughly. Blood samples were collected from the jugular, cephalic or saphenous veins from conscious animals. Blood samples were kept on ice until processed for plasma. Blood samples were centrifuged at 3200 RPM for 10 minutes at approximately 5° C. Plasma samples were directly transferred to 96-well plate tubes (MatrixTech, 0.75 mL). Rubber injectable caps were placed on the 96-well plate tubes. Plasma samples were stored at −20±5° C. until analyzed.
# A single 12-point calibration curve was prepared by first serially diluting (3-fold) a 40-μg/mL stock solution of Compound 1, Compound 2, and Compound 3 in DMSO to provide standard solutions. Plasma (20 μL) was then added to the extraction plate, and 2.5 μL of each standard solution was added to the naïve plasma. A stock solution of an internal standard (10.0 μL of 2.5 μg/mL in acetonitrile) subsequently was added to each standard and sample solution. Proteinaceous material was precipitated from 20 μL of plasma with the addition of 317.5 μL of acetonitrile for a total volume of 350 μL. Samples were vortex-mixed for 5 minutes and spun in an Allegra X-12R centrifuge (Beckman Coulter, Fullerton, Calif.) for 15 minutes at approximately 1,500×g at 4° C. A 100-μL aliquot of each supernatant was transferred via a 550 μL Personal Pipettor (Apricot Designs, Monrovia, Calif.) to 96-well plates and diluted 1:1 with HPLC grade water. The resulting plates were sealed with plate mats and the amount of Compound 1 n plasma was analyzed by LC-MS/MS.
# The LC-MS/MS system was comprised of an HTC-PAL autosampler (Leap Technologies, Inc., Carrboro, N.C.), an HP1100 HPLC (Agilent Technologies Inc., Santa Clara, Calif.), and an API4000 triple quadrupole mass spectrometer (Applied Biosystems, Foster City, Calif.). Chromatographic retention of the analyte and internal standard was achieved using a Phenomenex® Synergi 4μ Hydro-RP 80A column (2.1×30 mm, 4 μm particle size; Phenomenex, Torrance, Calif.) in conjunction with gradient conditions using mobile phases A (10 mM ammonium acetate in aqueous 0.1% formic acid and 1% isopropyl alcohol) and B (10 mM ammonium acetate in 89.9% acetonitrile, 10% methanol, 0.1% formic acid). The total run time, including re-equilibration time, for a single injection was 3.5 minutes and the flow rate was 0.8 mL/minute. Solvent B was increased from 5 to 95% in 1.0 minute, held at 95% for 1.0 minute, and then decreased to 5% in 0.1 minute. […]
# [3] = IV clearance, 1 mg/kg IV, monkey; assay type: in vivo; conditions: for in vivo/in vitro correction factor: microsomal CLh divided by IV CL; for clearance: plasma, 1 mg/kg IV
# Description: as §1
IC50 [1] [nM],clearance [2] [mL/min/kg],in vivo/in vitro correction factor [2],in vivo/in vitro correction factor [3],clearance [3] [mL/min/kg],SMILES
1.9,7.6,3.16,1.65,20,"COCCN1C[C@@H](NC(=O)Nc2c(C)c(-c3cnc(C)nc3)nn2-c2ccccc2)[C@H](c2cccc(F)c2)C1 [Compound 1, 1-((3S,4R)-4-(3-fluorophenyl)-1-(2-methoxyethyl)pyrrolidin-3-yl)-3-(4-methyl-3-(2-methylpyrimidin-5-yl)-1-phenyl-1H-pyrazol-5-yl)urea]"
1.3,25,1.04,2.11,18,"COCCN1C[C@@H](NC(=O)Nc2c(C)c(-c3cnc(C)nc3)nn2-c2ccccc2)[C@H](c2ccc(F)c(F)c2)C1 [Compound 2, 1-((3S,4R)-4-(3,4-difluorophenyl)-1-(2-methoxyethyl)pyrrolidin-3-yl)-3-(4-methyl-3-(2-methylpyrimidin-5-yl)-1-phenyl-1H-pyrazol-5-yl)urea]"
6.1,18,1.28,0.84,38,"COCCN1C[C@@H](NC(=O)Nc2c(C)c(-c3cnn(C)c3)nn2-c2ccccc2)[C@H](c2ccc(F)cc2)C1 [Compound 3, 1-(1′,4-dimethyl-1-phenyl-1H,1′H-[3,4′-bipyrazol]-5-yl)-3-((3S,4R)-4-(4-fluorophenyl)-1-(2-methoxyethyl)pyrrolidin-3-yl)urea]"
